Results published in ChEMBL document CHEMBL5154675, “Design, Synthesis, and Biological Evaluation of 1-(Indolizin-3-yl)ethan-1-ones as CBP Bromodomain Inhibitors for the Treatment of Prostate Cancer” (J Med Chem, 2022).
The source made the active and inactive calls. No cut-off for these calls is given here.

How the values were obtained:
[1] = Half life in human liver microsomes at 1 uM incubated for 45 mins in presence of NADPH by LC-MS/MS analysis; type: ADME, Microsome
[2] = biological target: Bromodomain-containing protein 2 (Homo sapiens, UniProt P25440); assay: Binding affinity to His6-tagged human BRD2 bromodomain-1 (77 to 194 residues) expressed in Escherichia coli BL21 (DE3) assessed as dissociation constant by ITC analysis
Bromodomain-containing protein 2, sequence (P25440 whole entry, the tested form may be a part): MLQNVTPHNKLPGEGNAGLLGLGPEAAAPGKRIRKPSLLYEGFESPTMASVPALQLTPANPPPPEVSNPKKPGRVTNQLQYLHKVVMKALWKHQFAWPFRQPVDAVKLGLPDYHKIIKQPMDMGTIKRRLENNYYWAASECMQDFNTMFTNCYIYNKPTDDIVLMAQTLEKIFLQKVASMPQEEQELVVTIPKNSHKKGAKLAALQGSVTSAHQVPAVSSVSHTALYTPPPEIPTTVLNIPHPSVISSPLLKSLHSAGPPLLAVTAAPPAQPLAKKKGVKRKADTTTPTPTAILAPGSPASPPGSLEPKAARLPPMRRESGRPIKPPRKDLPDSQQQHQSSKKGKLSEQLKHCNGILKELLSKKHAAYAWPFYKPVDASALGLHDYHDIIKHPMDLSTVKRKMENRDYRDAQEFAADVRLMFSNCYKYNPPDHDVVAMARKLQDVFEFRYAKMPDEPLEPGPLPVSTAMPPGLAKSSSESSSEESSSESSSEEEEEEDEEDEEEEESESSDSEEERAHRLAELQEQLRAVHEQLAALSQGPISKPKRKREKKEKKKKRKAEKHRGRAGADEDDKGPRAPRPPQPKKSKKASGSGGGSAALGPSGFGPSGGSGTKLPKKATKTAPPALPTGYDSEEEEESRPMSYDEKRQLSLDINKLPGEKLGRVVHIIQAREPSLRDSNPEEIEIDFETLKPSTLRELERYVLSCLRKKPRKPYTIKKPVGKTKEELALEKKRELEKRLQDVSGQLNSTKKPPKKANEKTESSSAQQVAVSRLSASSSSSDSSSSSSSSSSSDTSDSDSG

[3] = biological target: Bromodomain testis-specific protein (Homo sapiens, UniProt Q58F21); conditions: dose 200.0 µM, time 30.0 min
[4] = Half life in Sprague-Dawley rat at 5 mg/kg, iv administered as single dose measured up to 24 hrs; type: ADME, organism-based; conditions: Sprague-Dawley, in vivo
[5] = Half life in Sprague-Dawley rat at 25 mg/kg, po measured up to 24 hrs; type: ADME, organism-based; conditions: in vivo
[6] = biological target: T1, Bromodomain-containing protein 4 (Homo sapiens, UniProt O60885); conditions: dose 200.0 µM, time 30.0 min
[7] = tested on: CWR22R; assay: Suppression of c-Myc protein expression in human 22Rv1 cells at 5 uM incubated for 48 hrs by Western blot analysis; type: functional, cell-based
[8] = in vitro; conditions: rat, liver microsomes
Description: Hepatic extraction ratio in rat liver microsomes at 1 uM incubated for 45 mins in presence of NADPH by LC-MS/MS analysis

[9] = tested on: CWR22R; assay: Suppression of Androgen receptor target-gene expression in human 22Rv1 cells at 5 uM incubated for 48 hrs by SYBR green dye-based qRT-PCR analysis; type: functional, cell-based
[10] = tested on: CWR22R; assay: Suppression of Androgen receptor variants gene expression in human 22Rv1 cells incubated for 48 hrs by SYBR green dye-based qRT-PCR analysis; type: functional, cell-based; conditions: dose 0-20 µM, DDE = dose-dependent effect
[11] = Clearance in Sprague-Dawley rat at 5 mg/kg, iv administered as single dose measured up to 24 hrs; type: ADME, organism-based; conditions: in vivo, iv, 5 mg/kg, 24 h
[12] = tested on: LNCaP; assay: Antiproliferative activity against human LNCaP cells assessed as cell growth inhibition by Celltiter-Glo assay; type: functional, cell-based
[13] = tested on: CWR22R; assay: Suppression of PSA gene expression in human 22Rv1 cells incubated for 48 hrs by dual luciferase reporter assay; type: functional, cell-based; conditions: dose 0-20 µM, DDE = dose-dependent effect
[14] = Intrinsic clearance in human liver microsomes at 1 uM incubated for 45 mins in presence of NADPH by LC-MS/MS analysis; type: ADME, Microsome; conditions: read-out: CLH
[15] = biological target: CREB-binding protein (Homo sapiens, UniProt Q92793); assay: Binding affinity to His6-tagged human CBP bromodomain (1081 to 1197 residues) expressed in Escherichia coli BL21 (DE3) assessed as dissociation constant by ITC analysis
[16] = Efflux ratio of apparent permeability across basolateral to apical side over apical to basolateral side in human Caco-2 cells at 10 uM measured after 2 hrs by LC-MS/MS analysis; type: ADME, cell-based
[17] = Hepatic clearance in human liver microsomes at 1 uM incubated for 45 mins in presence of NADPH by LC-MS/MS analysis; type: ADME, Microsome; conditions: read-out: CLH
[18] = tested on: LNCaP; assay: Suppression of c-Myc protein expression in human LNCaP cells at 5 uM incubated for 48 hrs by Western blot analysis; type: functional, cell-based
[19] = Cmax in Sprague-Dawley rat at 5 mg/kg, iv administered as single dose measured up to 24 hrs; type: ADME, organism-based; parameters: time < 24 hrs, dose 5 mg/kg, route iv; conditions: in vivo
[20] = Half life in rat liver microsomes at 1 uM incubated for 45 mins in presence of NADPH by LC-MS/MS analysis; type: ADME, Microsome
[21] = biological target: Bromodomain adjacent to zinc finger domain protein 2B (Homo sapiens) (UniProt Q9UIF8); conditions: dose 200.0 µM, time 30.0 min
[22] = biological target: Chromatin remodeling regulator CECR2 (Homo sapiens) (UniProt Q9BXF3); conditions: dose 200.0 µM, time 30.0 min
Chromatin remodeling regulator CECR2 (Homo sapiens), sequence (Q9BXF3 whole entry, looked up): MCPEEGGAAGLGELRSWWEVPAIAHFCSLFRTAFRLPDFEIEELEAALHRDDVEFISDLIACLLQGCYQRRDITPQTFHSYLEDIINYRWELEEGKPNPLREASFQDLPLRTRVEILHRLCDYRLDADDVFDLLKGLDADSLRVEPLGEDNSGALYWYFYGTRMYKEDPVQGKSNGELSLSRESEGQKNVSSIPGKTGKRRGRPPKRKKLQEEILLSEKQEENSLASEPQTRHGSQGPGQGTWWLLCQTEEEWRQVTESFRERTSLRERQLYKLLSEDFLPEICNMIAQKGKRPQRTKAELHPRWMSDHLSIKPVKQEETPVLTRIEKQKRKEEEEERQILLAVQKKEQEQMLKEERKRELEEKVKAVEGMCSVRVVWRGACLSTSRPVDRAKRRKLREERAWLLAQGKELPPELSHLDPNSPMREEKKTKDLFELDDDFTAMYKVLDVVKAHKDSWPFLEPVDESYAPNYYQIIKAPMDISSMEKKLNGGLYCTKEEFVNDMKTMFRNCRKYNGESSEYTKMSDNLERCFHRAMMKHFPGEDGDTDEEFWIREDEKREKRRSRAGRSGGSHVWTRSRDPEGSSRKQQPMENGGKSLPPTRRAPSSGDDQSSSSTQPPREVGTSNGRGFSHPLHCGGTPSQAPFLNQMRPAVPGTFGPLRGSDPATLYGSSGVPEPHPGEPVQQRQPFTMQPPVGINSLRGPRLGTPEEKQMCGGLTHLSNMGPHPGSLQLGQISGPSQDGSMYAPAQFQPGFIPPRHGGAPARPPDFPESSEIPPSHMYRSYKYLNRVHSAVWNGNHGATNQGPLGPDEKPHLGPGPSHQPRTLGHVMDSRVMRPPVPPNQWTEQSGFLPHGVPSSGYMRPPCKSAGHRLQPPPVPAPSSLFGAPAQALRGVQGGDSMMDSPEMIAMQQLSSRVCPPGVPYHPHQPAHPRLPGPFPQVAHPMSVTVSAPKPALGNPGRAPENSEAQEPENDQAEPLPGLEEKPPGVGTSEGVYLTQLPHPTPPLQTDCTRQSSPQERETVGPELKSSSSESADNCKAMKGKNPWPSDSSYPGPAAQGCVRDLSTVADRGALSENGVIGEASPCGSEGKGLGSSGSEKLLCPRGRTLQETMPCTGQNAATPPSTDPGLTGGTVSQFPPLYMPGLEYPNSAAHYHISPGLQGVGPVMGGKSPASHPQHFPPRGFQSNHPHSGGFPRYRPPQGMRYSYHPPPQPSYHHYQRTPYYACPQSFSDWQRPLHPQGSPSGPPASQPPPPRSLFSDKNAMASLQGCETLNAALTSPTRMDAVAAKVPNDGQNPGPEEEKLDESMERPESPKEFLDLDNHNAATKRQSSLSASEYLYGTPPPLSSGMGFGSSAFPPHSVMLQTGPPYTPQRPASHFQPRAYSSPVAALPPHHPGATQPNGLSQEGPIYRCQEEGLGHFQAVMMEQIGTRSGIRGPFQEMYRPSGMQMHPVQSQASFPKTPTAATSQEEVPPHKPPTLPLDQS

[23] = tested on: CWR22R; assay: Antitumor activity against human 22Rv1 cells xenografted in NOD SCID mouse assessed as tumor growth inhibition at 40 mg/kg, po administered 5 times per week via oral gavage for 14 days and measured every other day relative to control; type: functional; conditions: 22Rv1, 336 h, time 14 day, read-out: TGI
[24] = Hepatic extraction ratio in human liver microsomes at 1 uM incubated for 45 mins in presence of NADPH by LC-MS/MS analysis; type: ADME, Microsome; conditions: read-out: ERH
[25] = biological target: Bromodomain-containing protein 3 (Homo sapiens, UniProt Q15059); assay: Binding affinity to His6-tagged human BRD3 bromodomain-2 (306 to 416 residues) expressed in Escherichia coli BL21 (DE3) assessed as dissociation constant by ITC analysis
Bromodomain-containing protein 3, sequence (Q15059 whole entry, the tested form may be a part): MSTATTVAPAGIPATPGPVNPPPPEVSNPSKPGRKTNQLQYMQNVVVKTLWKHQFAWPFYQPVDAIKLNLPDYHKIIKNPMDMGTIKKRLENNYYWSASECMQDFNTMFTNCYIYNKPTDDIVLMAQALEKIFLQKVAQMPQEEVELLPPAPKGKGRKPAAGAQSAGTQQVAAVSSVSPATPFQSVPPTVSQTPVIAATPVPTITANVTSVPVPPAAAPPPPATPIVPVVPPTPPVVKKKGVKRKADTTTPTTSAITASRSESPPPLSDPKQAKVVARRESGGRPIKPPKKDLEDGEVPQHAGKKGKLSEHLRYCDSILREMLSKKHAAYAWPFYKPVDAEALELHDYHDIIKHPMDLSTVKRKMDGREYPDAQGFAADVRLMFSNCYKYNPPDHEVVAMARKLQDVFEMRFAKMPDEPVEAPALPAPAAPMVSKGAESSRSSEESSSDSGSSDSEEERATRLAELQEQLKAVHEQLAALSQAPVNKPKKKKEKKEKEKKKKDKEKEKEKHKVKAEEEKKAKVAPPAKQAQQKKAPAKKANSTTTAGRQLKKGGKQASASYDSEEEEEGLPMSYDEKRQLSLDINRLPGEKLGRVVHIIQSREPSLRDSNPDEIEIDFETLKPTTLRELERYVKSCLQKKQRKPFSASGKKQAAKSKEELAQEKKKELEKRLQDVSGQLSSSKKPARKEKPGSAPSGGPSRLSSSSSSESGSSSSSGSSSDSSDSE

[26] = Oral bioavailability in Sprague-Dawley rat at 25 mg/kg measured up to 24 hrs; type: ADME, organism-based; conditions: in vivo
[27] = biological target: Histone acetyltransferase KAT2B (Homo sapiens) (UniProt Q92831); conditions: dose 200.0 µM, time 30.0 min
Histone acetyltransferase KAT2B (Homo sapiens), sequence (Q92831 whole entry, looked up): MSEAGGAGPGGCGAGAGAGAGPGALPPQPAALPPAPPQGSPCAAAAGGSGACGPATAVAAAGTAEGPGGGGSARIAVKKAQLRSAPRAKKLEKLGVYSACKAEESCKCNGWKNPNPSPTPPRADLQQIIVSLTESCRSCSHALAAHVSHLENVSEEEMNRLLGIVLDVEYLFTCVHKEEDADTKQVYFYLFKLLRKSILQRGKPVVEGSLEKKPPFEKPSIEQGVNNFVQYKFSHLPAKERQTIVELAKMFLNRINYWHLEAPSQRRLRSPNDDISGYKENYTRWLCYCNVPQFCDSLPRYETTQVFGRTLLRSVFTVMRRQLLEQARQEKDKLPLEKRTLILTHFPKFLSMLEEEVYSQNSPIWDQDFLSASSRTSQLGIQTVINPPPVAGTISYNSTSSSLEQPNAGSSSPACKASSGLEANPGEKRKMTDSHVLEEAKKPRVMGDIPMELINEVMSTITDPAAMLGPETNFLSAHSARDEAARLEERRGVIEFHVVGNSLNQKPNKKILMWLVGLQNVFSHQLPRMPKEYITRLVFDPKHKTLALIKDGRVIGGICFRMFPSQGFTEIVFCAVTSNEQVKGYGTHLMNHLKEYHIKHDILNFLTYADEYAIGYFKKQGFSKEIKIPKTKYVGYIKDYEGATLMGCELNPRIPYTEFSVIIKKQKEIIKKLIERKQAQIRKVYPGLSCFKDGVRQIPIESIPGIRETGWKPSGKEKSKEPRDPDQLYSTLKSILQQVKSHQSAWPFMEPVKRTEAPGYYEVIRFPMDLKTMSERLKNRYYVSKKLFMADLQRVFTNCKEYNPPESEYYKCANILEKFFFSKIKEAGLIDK

[28] = tested on: LNCaP C4-2B; assay: Induction of apoptosis in human LNCaP C4-2B cells assessed as increase in apoptotic cells at 10 uM measured after 48 hrs by Annexin V-FITC and propidium iodide staining based flow cytometry (Rvb= 1%); type: functional
[29] = tested on: LNCaP C4-2B; assay: Suppression of PSA gene expression in human LNCaP C4-2B cells transfected with renilla luciferase incubated for 24 hrs by dual luciferase reporter assay; type: functional, cell-based; conditions: dose 0.4-10 µM, DDE = dose-dependent effect
[30] = tested on: LNCaP C4-2B; assay: Suppression of Androgen receptor target-gene expression in human LNCaP C4-2B cells at 5 uM incubated for 48 hrs by SYBR green dye-based qRT-PCR analysis; type: functional, cell-based
[31] = Apparent permeability across basolateral to apical side in human Caco-2 cells at 10 uM measured after 2 hrs by LC-MS/MS analysis; type: ADME, cell-based
[32] = Intrinsic clearance in rat liver microsomes at 1 uM incubated for 45 mins in presence of NADPH by LC-MS/MS analysis; type: ADME, Microsome; conditions: read-out: CLH
[33] = biological target: T1, Bromodomain-containing protein 4; conditions: dose 200.0 µM, time 30.0 min; remark: listed apart in the source

**Q.** For `COc1ccn2c(C(C)=O)cc(C(=O)Nc3cc(C(C)O)cc(-c4cnn(C5CC5)c4)c3F)c2c1` (stereo not drawn), which half-life at 1 µM [1] is on record?
**A.** Its half-life at 1 µM is 21.3 min.

**Q.** And the Kd [2]?
**A.** The Kd was 840 nM.

**Q.** What about the ΔTm [3] of the same compound?
**A.** The ΔTm was -3 °C.

**Q.** And the half-life [4]?
**A.** Its half-life is 36.6 min.

**Q.** And the half-life [5]?
**A.** Its half-life is 99.6 min.

**Q.** What about the ΔTm [6] of the same compound?
**A.** Its ΔTm is -1.5 °C.

**Q.** And the Activity [7]?
**A.** Its Activity is “Active”.

**Q.** What about the hepatic extraction ratio at 0.75 h, 1 µM [8] of the same compound?
**A.** Its hepatic extraction ratio at 0.75 h, 1 µM is 0.495.

**Q.** And the Activity [9]?
**A.** The Activity was “Active”.

**Q.** What about the Activity [10] of the same compound?
**A.** The Activity was “Dde”.

**Q.** And the CL [11]?
**A.** Its CL is 2.33 mL/min/kg.

**Q.** What about the IC50 [12] of the same compound?
**A.** Its IC50 is 590 nM.

**Q.** And the Activity [13]?
**A.** Its Activity is “Dde”.

**Q.** What about the CLint scaled at 1 µM [14] of the same compound?
**A.** The CLint scaled at 1 µM was 81.9 mL/min/kg.

**Q.** What about the Kd [15] of the same compound?
**A.** Its Kd is 58 nM.

**Q.** And the efflux ratio at 2 h, 10 µM [16]?
**A.** Its efflux ratio at 2 h, 10 µM is 1.77.

**Q.** What about the CLint scaled at 1 µM [17] of the same compound?
**A.** The CLint scaled at 1 µM was 16.5 mL/min/kg.

**Q.** What about the Activity [18] of the same compound?
**A.** Its Activity is “Active”.

**Q.** What about the Cmax [19] of the same compound?
**A.** Its Cmax is 8110 ng/mL.

**Q.** What about the half-life at 1 µM [20] of the same compound?
**A.** Its half-life at 1 µM is 45.9 min.

**Q.** And the ΔTm [21]?
**A.** Its ΔTm is 0 °C.

**Q.** What about the ΔTm [22] of the same compound?
**A.** Its ΔTm is 0 °C.

**Q.** What about the inhibition in vivo at 40 mg/kg [23] of the same compound?
**A.** Its inhibition in vivo at 40 mg/kg is 78%.

**Q.** And the hepatic extraction ratio at 0.75 h, 1 µM [24]?
**A.** Its hepatic extraction ratio at 0.75 h, 1 µM is 0.798.

**Q.** What about the Kd [25] of the same compound?
**A.** The Kd was 1500 nM.

**Q.** What about the bioavailability [26] of the same compound?
**A.** The bioavailability was 25.9%.

**Q.** And the ΔTm [27]?
**A.** The ΔTm was -0.6 °C.

**Q.** And the Activity [28]?
**A.** Its Activity is 10.39%.

**Q.** And the Activity [29]?
**A.** The Activity was “Dde”.

**Q.** And the Activity [30]?
**A.** The Activity was “Active”.

**Q.** And the Papp B→A at 2 h, 10 µM [31]?
**A.** Its Papp B→A at 2 h, 10 µM is 11.8 ×10⁻⁶ cm/s.

**Q.** What about the CLint scaled at 1 µM [32] of the same compound?
**A.** The CLint scaled at 1 µM was 54.1 mL/min/kg.

**Q.** And the ΔTm [33]?
**A.** The ΔTm was -0.5 °C.
